One may read the IC50 as the concentration at which inhibition is half-maximal.

The target in test [1] is T1, human TRPV1 receptor (hTRPV1) (Homo sapiens (Human), UniProt Q8NER1). Briefly: Acid activation assay (pH 5.0, FLIPR intracellular Ca2+). In kind it is cell-based. As to conditions: 37.5 μM compound, percentage of the maximal pH 5.0-induced response remaining; for remaining activity at 37.5 µM: read-out: hTRPV1 H+ (max % remain). As for the experimental part: Dulbecco's modified Eagle's medium (DMEM) with 4.5 mg/mL D-glucose, fetal bovine serum, L-glutamine, and 2-morpholinoethanesulfonic acid (MES) were purchased from Sigma-Aldrich Co. (St. Louis, Mo.). Dulbecco's phosphate-buffered saline (DPBS) with Ca^2+, Mg^2+, and 1 mg/mL D-glucose (pH 7.4), Geneticin®, 0.25% trypsin-1 mM EDTA, and penicillin-streptomycin were purchased from Invitrogen Corp. (Carlsbad, Calif.). The FLIPR® Calcium 4 assay kit was purchased from Molecular Devices (Sunnyvale, Calif.).
T1 sequence (Q8NER1 whole entry): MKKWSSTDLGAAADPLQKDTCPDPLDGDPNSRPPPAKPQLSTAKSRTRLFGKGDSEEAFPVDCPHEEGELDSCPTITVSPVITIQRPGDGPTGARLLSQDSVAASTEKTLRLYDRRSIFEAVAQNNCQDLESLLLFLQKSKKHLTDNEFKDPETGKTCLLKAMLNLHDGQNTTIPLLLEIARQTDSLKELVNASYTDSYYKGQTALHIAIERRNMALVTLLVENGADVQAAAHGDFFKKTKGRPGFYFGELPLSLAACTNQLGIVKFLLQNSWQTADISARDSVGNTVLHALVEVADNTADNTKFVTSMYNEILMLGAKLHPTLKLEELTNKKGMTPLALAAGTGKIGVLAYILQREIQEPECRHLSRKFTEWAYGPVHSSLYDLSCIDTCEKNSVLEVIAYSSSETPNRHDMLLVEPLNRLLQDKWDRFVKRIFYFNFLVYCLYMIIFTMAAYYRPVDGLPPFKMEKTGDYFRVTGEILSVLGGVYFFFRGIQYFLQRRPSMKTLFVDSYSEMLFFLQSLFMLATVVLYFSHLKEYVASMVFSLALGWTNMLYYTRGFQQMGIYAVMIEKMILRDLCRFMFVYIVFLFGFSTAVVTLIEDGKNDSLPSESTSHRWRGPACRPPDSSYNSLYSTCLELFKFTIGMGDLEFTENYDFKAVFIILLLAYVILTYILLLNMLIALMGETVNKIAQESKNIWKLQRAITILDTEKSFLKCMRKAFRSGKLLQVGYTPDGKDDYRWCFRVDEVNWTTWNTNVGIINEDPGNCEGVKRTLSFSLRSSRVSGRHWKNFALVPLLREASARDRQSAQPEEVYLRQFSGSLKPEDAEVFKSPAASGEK
(§1) The cDNAs for the human TRPV1 receptor (hTRPV1) were isolated by reverse transcriptase-polymerase chain reaction (RT-PCR) from human small intestine poly A+ RNA supplied by Clontech (Palo Alto, Calif.) using primers designed surrounding the initiation and termination codons identical to the published sequences (Hayes et al. Pain 2000, 88, 205-215). The resulting cDNA PCR products were subcloned into pCIneo mammalian expression vector (Promega) and fully sequenced using fluorescent dye-terminator reagents (Prism, Perkin-Elmer Applied Biosystems Division) and a Perkin-Elmer Applied Biosystems Model 373 DNA sequencer or Model 310 genetic analyzer. Expression plasmids encoding the hTRPV1 cDNA were transfected individually into 1321N1 human astrocytoma cells using Lipofectamine®. Forty-eight hours after transfection, the neomycin-resistant cells were selected with growth medium containing 800 μg/mL Geneticin (Gibco BRL). Surviving individual colonies were isolated and screened for TRPV1 receptor activity. Cells expressing recombinant homomeric TRPV1 receptors were maintained at 37° C. in DMEM containing 4 mM L-glutamine, 300 μg/mL G418 (Cal-biochem) and 10% fetal bovine serum under a humidified 5% CO2 atmosphere.
The functional activity of compounds at the TRPV1 receptor was determined by measurement of intracellular Ca^2+ levels ([Ca^2+]i) using the Fluorescence Imaging Plate Reader (FLIPR)^TETRA®. All compounds were tested over a 12-point one-half-log concentration range. Compound stocks, 10 mM, were prepared in DMSO, and diluted serially across a 384-well plate using a Bravo BenchCel workstation (Agilent Technologies, Santa Clara, Calif.).
On the day of the experiment growth medium was removed, and the no-wash FLIPR®Calcium-4 dye (λEX=470-495 nm, λEM=515-575 nm) was added to each well using the Multidrop® dispenser. Cells were incubated for 90-120 minutes in the dark at 25° C. Test compounds were dissolved in DMSO, and plates were prepared using an Agilent Bravo workstation (Agilent Technologies Inc., Santa Clara, Calif.). Compounds were added to the cells 3 minutes prior to the addition of a pH 5.0 solution. Reagents were delivered at a rate of 40 μL/sec, and the final assay volume was 80 μL. Acidic pH solutions were prepared by titration of DPBS/MES with 1 N HCl. The intensity of the fluorescence was captured and digitally transferred to an interfaced PC.

Test [2] concerns the target T1, human TRPV1 receptor (hTRPV1). Briefly: Capsaicin activation assay (FLIPR intracellular Ca2+). The settings on record: inhibition of capsaicin-induced intracellular Ca2+ increase; compounds added 3 minutes prior to capsaicin; read-out: hTRPV1 cap. IC50. Format: cell-based. As for the experimental part:
Dulbecco's modified Eagle medium (D-MEM) (with 4.5 mg/mL glucose) and fetal bovine serum were obtained from Hyclone Laboratories, Inc. (Logan, Utah). Dulbecco's phosphate-buffered saline (D-PBS) (with 1 mg/mL glucose and 3.6 mg/l Na pyruvate, without phenol red), L-glutamine, hygromycin B, and Lipofectamine® were obtained from Life Technologies (Grand Island, N.Y.). G418 sulfate was obtained from Calbiochem-Novabiochem Corp. (San Diego, Calif.). Capsaicin (8-methyl-N-vanillyl-6-nonenamide) was obtained from Sigma-Aldrich, Co. (St. Louis, Mo.). Fluo-4 AM (N-[4-[6-[(acetyloxy)methoxy]-2,7-difluoro-3-oxo-3H-xanthen-9-yl]-2-[2-[2-[bis[2-[(acetyloxy)methoxy]-2-oxyethyl]amino]-5-methylphenoxy]ethoxy]phenyl]-N-[2-[(acetyloxy)methoxy]-2-oxyethyl]-glycine, (acetyloxy)methyl ester) was purchased from Molecular Probes (Eugene, Oreg.).
as §1, with “D-MEM” for “DMEM”
The functional activity of compounds at the TRPV1 receptor was determined by measurement of intracellular Ca^2+ levels ([Ca^2]i) using the Fluorescence Imaging Plate Reader (FLIPR)^TETRA®. All compounds were tested over a 12-point one-third-log concentration range. Compound stocks, 10 mM, were prepared in DMSO, and diluted serially across a 384-well plate using a Bravo BenchCel workstation (Agilent Technologies, Santa Clara, Calif.). A stock concentration of capsaicin (10 mM) was made in DMSO, and diluted in D-PBS to a final concentration of 200 nM (4×). On the day prior to the experiment, recombinant HEK293 cells that stably express either human or rat TRPV1 (hTRPV1-3) were removed from tissue culture flasks and plated in growth medium into black-walled clear-bottom 384-well Biocoat™ poly-D-lysine assay plates (BD Biosciences, Bedford, Mass.) using a Multidrop® dispenser (ThermoScientific, Waltham, Mass.). On the day of the experiment, growth medium was removed, and the no-wash FLIPR® Calcium-4 dye (λEX=470-495 nm, λEM=515-575 nm; Molecular Devices, Sunnyvale, Calif.) was added to each well using the Multidrop® dispenser. Cells were incubated for 90-120 minutes in the dark at room temperature. Test compounds were added to the cells 3 minutes prior to the addition of 200 nM capsaicin (4×), and the final assay volume was 80 μL. Fluorescence readings were made at 1 to 5 second intervals over the course of the experimental run. The peak increase in relative fluorescence units (minus baseline) was calculated, and expressed as a percentage of the 50 nM capsaicin (control) response. Curve-fits of the data were solved using a four-parameter logistic Hill equation in GraphPad Prism® (GraphPad Software, Inc., San Diego, Calif.), and IC50 values (concentration of the test compounds that inhibits 50% of the intracellular Ca^2+ concentration increase induced by capasin) were calculated.

Molecules are shown by their SMILES.

As to `CS(=O)(=O)Nc1ccc(CNC(=O)N[C@@H]2CCOc3cc(C(F)(F)F)ccc32)cc1F` [Example 32, N-{2-fluoro-4-[({[(4R)-7-(trifluoromethyl)-3,4-dihydro-2H-chromen-4-yl]carbamoyl}amino)methyl]phenyl}methanesulfonamide], the remaining activity at 37.5 µM in test [1] was determined as 88%. The concentration for half-maximal inhibition (IC50) in test [2] was determined as 0.913 µM.

Turning to `CS(=O)(=O)Nc1ccc(CNC(=O)N[C@H]2CC3(CCC3)Oc3ccc(F)cc32)cc1F` [Example 33, N-{2-fluoro-4-[({[(45)-6-fluoro-3,4-dihydrospiro[chromene-2,1′-cyclobutan]-4-yl]carbamoyl}amino)methyl]phenyl}methanesulfonamide], the “hTRPV1 H+ (max % remain)” value in test [1] turned out to be 101%. In addition, in test [2], the IC50 came to 23.1 µM.

On to `CC1(C)C[C@H](NC(=O)NCc2ccc(NS(C)(=O)=O)c(F)c2)c2cc(F)ccc2O1` [Example 34, N-{2-fluoro-4-[({[(45)-6-fluoro-2,2-dimethyl-3,4-dihydro-2H-chromen-4-yl]carbamoyl}amino)methyl]phenyl}methanesulfonamide], for which, in test [1], the “hTRPV1 H+ (max % remain)” value is recorded as 86%. In test [2], the IC50 is 28.7 µM.

With `C[C@@]1(C(F)(F)F)C[C@@H](NC(=O)NCc2ccc(NS(C)(=O)=O)c(F)c2)c2ccccc2O1` [Example 35, N-{2-fluoro-4-[({[(2S,4R)-2-methyl-2-(trifluoromethyl)-3,4-dihydro-2H-chromen-4-yl]carbamoyl}amino)methyl]phenyl}methanesulfonamide], the remaining activity at 37.5 µM in test [1] amounted to 25%. In addition, the IC50 in test [2] was 2.44 µM.

Regarding `C[C@]1(C(F)(F)F)C[C@@H](NC(=O)NCc2ccc(NS(C)(=O)=O)c(F)c2)c2ccccc2O1` [Example 36, N-{2-fluoro-4-[({[(2R,4R)-2-methyl-2-(trifluoromethyl)-3,4-dihydro-2H-chromen-4-yl]carbamoyl}amino)methyl]phenyl}methanesulfonamide], the remaining activity at 37.5 µM in test [1] was found to be 58%. The IC50 in test [2] came out at 0.587 µM.

Consider `C[C@@]1(CF)C[C@@H](NC(=O)NCc2ccc(NS(C)(=O)=O)c(F)c2)c2ccc(C(F)(F)F)cc2O1` [Example 37, N-{2-fluoro-4-[({[(2S,4R)-2-(fluoromethyl)-2-methyl-7-(trifluoromethyl)-3,4-dihydro-2H-chromen-4-yl]carbamoyl}amino)methyl]phenyl}methanesulfonamide], for which, in test [1], the remaining activity at 37.5 µM came out at 64%. Further, the IC50 in test [2] came to 0.256 µM.

Take `C[C@]1(CF)C[C@@H](NC(=O)NCc2ccc(NS(C)(=O)=O)c(F)c2)c2ccc(C(F)(F)F)cc2O1` [Example 38, N-{2-fluoro-4-[({[(2R,4R)-2-(fluoromethyl)-2-methyl-7-(trifluoromethyl)-3,4-dihydro-2H-chromen-4-yl]carbamoyl}amino)methyl]phenyl}methanesulfonamide]: the remaining activity at 37.5 µM in test [1] stood at 63%. In addition, the IC50 in test [2] amounted to 0.345 µM.

`C[C@@]1(CF)C[C@@H](NC(=O)NCc2ccc(NS(C)(=O)=O)c(F)c2)c2ccc(Cl)cc2O1` [Example 39, N-{4-[({[(2S,4R)-7-chloro-2-(fluoromethyl)-2-methyl-3,4-dihydro-2H-chromen-4-yl]carbamoyl}amino)methyl]-2-fluorophenyl}methanesulfonamide]: the remaining activity at 37.5 µM in test [1] was found to be 41%. The IC50 in test [2] is 0.615 µM.

Consider `C[C@@]1(C(F)F)C[C@@H](NC(=O)NCc2ccc(NS(C)(=O)=O)c(F)c2)c2ccccc2O1` [Example 40, N-{4-[({[(2S,4R)-2-(difluoromethyl)-2-methyl-3,4-dihydro-2H-chromen-4-yl]carbamoyl}amino)methyl]-2-fluorophenyl}methanesulfonamide], for which the remaining activity at 37.5 µM in test [1] was 64%. In addition, the IC50 in test [2] was 10.1 µM.

As for `C[C@]1(C(F)F)C[C@@H](NC(=O)NCc2ccc(NS(C)(=O)=O)c(F)c2)c2ccccc2O1` [Example 41, N-{4-[({[(2R,4R)-2-(difluoromethyl)-2-methyl-3,4-dihydro-2H-chromen-4-yl]carbamoyl}amino)methyl]-2-fluorophenyl}methanesulfonamide], the remaining activity at 37.5 µM in test [1] was 71%. Further, the IC50 in test [2] turned out to be 5.28 µM.

`CC1(C)C[C@@H](NC(=O)NCc2ccc(NS(C)(=O)=O)c(F)c2)c2ccc(C(F)(F)F)nc2O1` [Example 42, N-{4-[({[(4R)-2,2-dimethyl-7-(trifluoromethyl)-3,4-dihydro-2H-pyrano[2,3-b]pyridin-4-yl]carbamoyl}amino)methyl]-2-fluorophenyl}methanesulfonamide]: the remaining activity at 37.5 µM in test [1] came to 82%. Moreover, the 50% inhibitory concentration (IC50) in test [2] came to 32.8 µM.

On to `CS(=O)(=O)Nc1ccc(CNC(=O)N[C@@H]2CC(CF)(CF)Oc3cc(F)ccc32)cc1F` [Example 43, N-{2-fluoro-4-[({[(4R)-7-fluoro-2,2-bis(fluoromethyl)-3,4-dihydro-2H-chromen-4-yl]carbamoyl}amino)methyl]phenyl}methanesulfonamide], for which, in test [1], the remaining activity at 37.5 µM turned out to be 43%. In addition, in test [2], the IC50 came to 6.41 µM.

As for `CS(=O)(=O)Nc1ccc(CNC(=O)NC2CC3(CCCC3)Oc3ccccc32)cc1F` (centres unmarked) [Example 44, N-(4-{[(3,4-dihydrospiro[chromene-2,1′-cyclopentan]-4-ylcarbamoyl)amino]methyl}-2-fluorophenyl)methanesulfonamide], in test [1], the remaining activity at 37.5 µM is 42%. The IC50 in test [2] was 1.28 µM.

The values are drawn from patent US8796328B2, “TRPV1 antagonists” (AbbVie Inc., priority 2012, dated 2014).
